Test results published in patent US6737383B1, “Herbicidal oxadiazolidines” (priority 1999, dated 2004).

Assays:
[1] = tested on: bamyardgrass; experiment: Test B flood test barnyardgrass; type: in vivo, Echinochloa crus-galli
How it was run: (§1)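 Each value is a visual injury score relative to controls, with 10 meaning complete control and 0 no effect. Evaluation took place twelve to sixteen days after the 2-leaf-stage plants were treated and kept in the greenhouse.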

[2] = tested on: cocklebur; experiment: Test B pre/postemergence cocklebur; type: in vivo, Xanthium strumarium
How it was run: (§2)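 Test chemicals in a non-phytotoxic solvent mixture with surfactant were sprayed preemergence onto planted seeds and postemergence onto plants 2 to 18 cm tall (1- to 4-leaf stage). After twelve to sixteen days in a greenhouse, injury was visually rated against untreated controls from 0 (no effect) to 10 (complete control).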

[3] = tested on: pigweed; experiment: Test B pre/postemergence pigweed; type: in vivo, Amaranthus retroflexus; conditions: for Plant response rating, Redroot pigweed: scale of 0 to 10 where 0 is no effect and 10 is complete control
How it was run: as §2

[4] = tested on: soybean; experiment: Test B pre/postemergence soybean; type: in vivo, Glycine max; conditions: for Plant response rating, Soybean: scale of 0 to 10 where 0 is no effect and 10 is complete control
How it was run: as §2

[5] = tested on: sugar beet; experiment: Test B pre/postemergence sugar beet; type: in vivo, Beta vulgaris; conditions: for Plant response rating, Sugarbeets: scale of 0 to 10 where 0 is no effect and 10 is complete control
How it was run: as §2

[6] = tested on: corn; experiment: Test B pre/postemergence corn; type: in vivo, Zea mays
How it was run: as §2

[7] = tested on: smallflower flatsedge; experiment: Test B flood test smallflower flatsedge; type: in vivo, Cyperus difformis
How it was run: as §1

[8] = tested on: rice; experiment: Test B flood test rice; type: in vivo, Oryza sativa
How it was run: as §1

[9] = tested on: duck salad; experiment: Test B flood test duck salad; type: in vivo, Heteranthera limosa
How it was run: as §1

[10] = tested on: velvetleaf; experiment: Test B pre/postemergence velvetleaf; type: in vivo, Abutilon theophrasti; conditions: for Plant response rating, Velvetleaf: scale of 0 to 10 where 0 is no effect and 10 is complete control
How it was run: as §2

[11] = tested on: wheat; experiment: Test B pre/postemergence wheat; type: in vivo, Triticum aestivum; conditions: for Plant response rating, Wheat: scale of 0 to 10 where 0 is no effect and 10 is complete control
How it was run: as §2

[12] = tested on: wild oat; experiment: Test B pre/postemergence wild oat; type: in vivo, Avena fatua; conditions: for Plant response rating, Wild oats: scale of 0 to 10 where 0 is no effect and 10 is complete control
How it was run: as §2

[13] = tested on: surinam grass; experiment: Test B pre/postemergence surinam grass; type: in vivo, Brachiaria decumbens
How it was run: as §2

[14] = tested on: giant foxtail; experiment: Test B pre/postemergence giant foxtail; type: in vivo, Setaria faberii
How it was run: as §2

[15] = tested on: morningglory; experiment: Test B pre/postemergence morningglory; type: in vivo, Ipomoea hederacea; conditions: for Plant response rating, Morningglory: scale of 0 to 10 where 0 is no effect and 10 is complete control
How it was run: as §2

[16] = tested on: rape; experiment: Test B pre/postemergence rape; type: in vivo, Brassica napus; conditions: for Plant response rating, Rape: scale of 0 to 10 where 0 is no effect and 10 is complete control
How it was run: as §2

[17] = Rate 62 g/ha, flood test species, Pre-emergence, visual evaluation after twelve to sixteen days
[18] = Rate 125 g/ha, under heading Pre-emergence, flood test species, visual evaluation after twelve to sixteen days
[19] = Rate 250 g/ha, Pre-emergence (flood test species), scale 0 to 10, 0 is no effect, 10 is complete control
[20] = Rate 500 g/ha, Pre-emergence, flood test species, scale 0 to 10 (0 no effect, 10 complete control)
[21] = Postemergence, Rate 250 g/ha, scale 0 to 10
[22] = Postemergence, Rate 500 g/ha, scale of 0 to 10 where 0 is no effect and 10 is complete control
[23] = Preemergence, Rate 62 g/ha, scale of 0 to 10 where 0 is no effect and 10 is complete control
[24] = Preemergence, Rate 125 g/ha, scale of 0 to 10 where 0 is no effect and 10 is complete control
[25] = Preemergence, Rate 250 g/ha, scale 0 to 10, 0 is no effect, 10 is complete control
[26] = Preemergence, Rate 500 g/ha, scale 0 to 10, 0 is no effect, 10 is complete control
[27] = Rate 62 g/ha, Postemergence, scale 0 to 10 (0 no effect, 10 complete control)
[28] = Rate 125 g/ha, Postemergence, scale 0 to 10, 0 is no effect, 10 is complete control

## CC(C)N(C(=O)n1oc(=O)n(CCS(C)(=O)=O)c1=O)c1ccc(F)cc1 [Compound 453]
[1]; [17]
  Plant response rating, Barnyardgrass (0 to 10 scale, 0 is no effect, 10 is complete control): 0
[1]; [18]
  Barnyardgrass plant response rating (0 to 10 scale, 0 is no effect, 10 is complete control): 0
[1]; [19]
  Barnyardgrass plant response rating: 0
[1]; [20]
  Barnyardgrass plant response rating: 0
[2]; [21]
  Cocklebur plant response rating: 0
[2]; [22]
  Cocklebur plant response rating: 0
[2]; [23]
  Plant response rating, Cocklebur: 0
[2]; [24]
  Plant response rating, Cocklebur: 0
[2]; [25]
  Cocklebur plant response rating: 0
[2]; [26]
  Cocklebur plant response rating: 0
[2]; [27]
  Cocklebur plant response rating: 0
[2]; [28]
  Cocklebur plant response rating: 0
[3]; [21]
  Redroot pigweed plant response rating: 0
[3]; Preemergence, Rate 62 g/ha
  Plant response rating, Redroot pigweed: 0
[3]; Preemergence, Rate 125 g/ha
  Plant response rating, Redroot pigweed: 4
[3]; [25]
  Redroot pigweed plant response rating: 6
[3]; [26]
  Redroot pigweed plant response rating: 10
[3]; [27]
  Redroot pigweed plant response rating: 0
[3]; [28]
  Redroot pigweed plant response rating: 0
[4]; [21]
  Soybean plant response rating: 1
[4]; Preemergence, Rate 62 g/ha
  Plant response rating, Soybean: 0
[4]; Preemergence, Rate 125 g/ha
  Plant response rating, Soybean: 0
[4]; [25]
  Soybean plant response rating: 0
[4]; [26]
  Soybean plant response rating: 0
[4]; [27]
  Soybean plant response rating: 1
[4]; [28]
  Soybean plant response rating: 1
[5]; [21]
  Sugarbeets plant response rating: 0
[5]; Preemergence, Rate 62 g/ha
  Plant response rating, Sugarbeets: 0
[5]; Preemergence, Rate 125 g/ha
  Plant response rating, Sugarbeets: 0
[5]; [25]
  Sugarbeets plant response rating: 2
[5]; [26]
  Sugarbeets plant response rating: 5
[5]; [27]
  Sugarbeets plant response rating: 0
[5]; [28]
  Sugarbeets plant response rating: 0
[6]; [21]
  Corn plant response rating: 0
[6]; [22]
  Corn plant response rating: 0
[6]; [23]
  Plant response rating, Corn: 0
[6]; [24]
  Plant response rating, Corn: 0
[6]; [25]
  Corn plant response rating: 0
[6]; [26]
  Corn plant response rating: 3
[6]; [27]
  Corn plant response rating: 0
[6]; [28]
  Corn plant response rating: 0
[7]; [17]
  Plant response rating, S. Flatsedge (0 to 10 scale, 0 is no effect, 10 is complete control): 0
[7]; [18]
  S. Flatsedge plant response rating (0 to 10 scale, 0 is no effect, 10 is complete control): 0
[7]; [19]
  S. Flatsedge plant response rating: 0
[7]; [20]
  S. Flatsedge plant response rating: 0
[8]; [17]
  Plant response rating, Rice (0 to 10 scale, 0 is no effect, 10 is complete control): 0
[8]; [18]
  Rice plant response rating (0 to 10 scale, 0 is no effect, 10 is complete control): 0
[8]; [19]
  Rice plant response rating: 0
[8]; [20]
  Rice plant response rating: 0
[9]; [17]
  Plant response rating, Ducksalad (0 to 10 scale, 0 is no effect, 10 is complete control): 0
[9]; [18]
  Ducksalad plant response rating (0 to 10 scale, 0 is no effect, 10 is complete control): 0
[9]; [19]
  Ducksalad plant response rating: 0
[9]; [20]
  Ducksalad plant response rating: 0
[10]; [21]
  Velvetleaf plant response rating: 0
[10]; Preemergence, Rate 62 g/ha
  Plant response rating, Velvetleaf: 0
[10]; Preemergence, Rate 125 g/ha
  Plant response rating, Velvetleaf: 0
[10]; [25]
  Velvetleaf plant response rating: 2
[10]; [26]
  Velvetleaf plant response rating: 6
[10]; [27]
  Velvetleaf plant response rating: 0
[10]; [28]
  Velvetleaf plant response rating: 0
[11]; [21]
  Wheat plant response rating: 0
[11]; Preemergence, Rate 62 g/ha
  Plant response rating, Wheat: 0
[11]; Preemergence, Rate 125 g/ha
  Plant response rating, Wheat: 0
[11]; [25]
  Wheat plant response rating: 3
[11]; [26]
  Wheat plant response rating: 6
[11]; [27]
  Wheat plant response rating: 0
[11]; [28]
  Wheat plant response rating: 0
[12]; [21]
  Wild oats plant response rating: 0
[12]; Preemergence, Rate 62 g/ha
  Plant response rating, Wild oats: 0
[12]; Preemergence, Rate 125 g/ha
  Plant response rating, Wild oats: 0
[12]; [25]
  Wild oats plant response rating: 2
[12]; [26]
  Wild oats plant response rating: 8
[12]; [27]
  Wild oats plant response rating: 0
[12]; [28]
  Wild oats plant response rating: 0
[13]; Postemergence, Rate 250 g/ha, scale 0 to 10, 0 no effect, 10 complete control
  B. signalgrass plant response rating: 2
[13]; [22]
  B. signalgrass plant response rating: 5
[13]; [23]
  Plant response rating, B. signalgrass: 0
[13]; [24]
  Plant response rating, B. signalgrass: 2
[13]; [25]
  B. signalgrass plant response rating: 6
[13]; [26]
  B. signalgrass plant response rating: 6
[13]; [27]
  B. signalgrass plant response rating: 0
[13]; [28]
  B. signalgrass plant response rating: 0
[14]; [21]
  Giant foxtail plant response rating: 7
[14]; [22]
  Giant foxtail plant response rating: 9
[14]; [23]
  Plant response rating, Giant foxtail: 7
[14]; [24]
  Plant response rating, Giant foxtail: 9
[14]; [25]
  Giant foxtail plant response rating: 10
[14]; [26]
  Giant foxtail plant response rating: 10
[14]; [27]
  Giant foxtail plant response rating: 3
[14]; [28]
  Giant foxtail plant response rating: 5
[15]; [21]
  Morningglory plant response rating: 2
[15]; Preemergence, Rate 62 g/ha
  Plant response rating, Morningglory: 0
[15]; Preemergence, Rate 125 g/ha
  Plant response rating, Morningglory: 0
[15]; [25]
  Morningglory plant response rating: 0
[15]; [26]
  Morningglory plant response rating: 3
[15]; [27]
  Morningglory plant response rating: 0
[15]; [28]
  Morningglory plant response rating: 0
[16]; [21]
  Rape plant response rating: 0
[16]; Preemergence, Rate 62 g/ha
  Plant response rating, Rape: 0
[16]; Preemergence, Rate 125 g/ha
  Plant response rating, Rape: 0
[16]; [25]
  Rape plant response rating: 0
[16]; [26]
  Rape plant response rating: 3
[16]; [27]
  Rape plant response rating: 0
[16]; [28]
  Rape plant response rating: 0
